This passage reports MIC80, IC50 and Ratio results from ChEMBL document CHEMBL4184109, “Design, synthesis, and structure-activity relationship studies of novel tetrazole antifungal agents with potent activity, broad antifungal spectrum and high selectivity” (Bioorg Med Chem Lett, 2018).

Converted amounts (≈) assume the structure as drawn. Some results are limits rather than exact numbers.

One assay relates to Aspergillus fumigatus. Description: Antifungal activity against Aspergillus fumigatus after 48 hrs by serial dilution method. Type of assay: functional.
The test system of assay [1] is Candida parapsilosis. The assay can be described thus: Antifungal activity against Candida parapsilosis ATCC 22019 after 24 hrs by serial dilution method. Type of assay: functional. To be noted: Lodderomyces parapsilosis, ATCC 22019, 24 h.
Assay [2] relates to Nannizzia gypsea. Description: Antifungal activity against Microsporum gypseum by serial dilution method. Type of assay: functional.
The subject of assay [3] is Cryptococcus neoformans. Description: Antifungal activity against Cryptococcus neoformans after 72 hrs by serial dilution method. Type of assay: functional.
For assay [4], the system named is Candida albicans. Description: Antifungal activity against Candida albicans Y0109 after 24 hrs by serial dilution method. To be noted: Y0109, 24 h. Type of assay: functional.
The target in another assay is T1, Cytochrome P450 1A2 (Homo sapiens, UniProt P05177).
T1 sequence (P05177 whole entry): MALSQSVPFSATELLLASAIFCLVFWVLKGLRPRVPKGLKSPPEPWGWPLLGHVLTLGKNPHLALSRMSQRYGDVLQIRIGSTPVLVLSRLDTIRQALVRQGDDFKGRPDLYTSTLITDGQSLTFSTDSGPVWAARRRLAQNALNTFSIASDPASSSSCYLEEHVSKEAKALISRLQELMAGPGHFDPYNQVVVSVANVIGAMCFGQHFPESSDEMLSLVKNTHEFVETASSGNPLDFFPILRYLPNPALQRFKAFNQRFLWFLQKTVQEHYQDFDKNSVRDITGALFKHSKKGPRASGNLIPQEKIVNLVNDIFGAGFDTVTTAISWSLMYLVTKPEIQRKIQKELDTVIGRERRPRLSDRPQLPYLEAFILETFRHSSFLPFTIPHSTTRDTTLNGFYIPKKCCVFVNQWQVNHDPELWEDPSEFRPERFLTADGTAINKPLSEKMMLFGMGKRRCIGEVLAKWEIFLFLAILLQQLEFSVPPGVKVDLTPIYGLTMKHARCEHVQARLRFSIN
The assay can be described thus: Inhibition of CYP1A2 in human liver microsomes using phenacetin as substrate preincubated for 10 mins with substrate followed by NADPH addition measured after 15 mins by LC/MS/MS analysis. Type of assay: ADME.

In a further assay the target is Cytochrome P450 2C9 (Homo sapiens, UniProt P11712). The assay can be described thus: Inhibition of CYP2C9 in human liver microsomes using tolbutamide as substrate preincubated for 10 mins with substrate followed by NADPH addition measured after 15 mins by LC/MS/MS analysis. Type of assay: ADME. For orientation: Liver microsomes are vesicles of endoplasmic reticulum, rich in cytochrome P450 enzymes.
Sequence of Cytochrome P450 2C9 (P11712 whole entry): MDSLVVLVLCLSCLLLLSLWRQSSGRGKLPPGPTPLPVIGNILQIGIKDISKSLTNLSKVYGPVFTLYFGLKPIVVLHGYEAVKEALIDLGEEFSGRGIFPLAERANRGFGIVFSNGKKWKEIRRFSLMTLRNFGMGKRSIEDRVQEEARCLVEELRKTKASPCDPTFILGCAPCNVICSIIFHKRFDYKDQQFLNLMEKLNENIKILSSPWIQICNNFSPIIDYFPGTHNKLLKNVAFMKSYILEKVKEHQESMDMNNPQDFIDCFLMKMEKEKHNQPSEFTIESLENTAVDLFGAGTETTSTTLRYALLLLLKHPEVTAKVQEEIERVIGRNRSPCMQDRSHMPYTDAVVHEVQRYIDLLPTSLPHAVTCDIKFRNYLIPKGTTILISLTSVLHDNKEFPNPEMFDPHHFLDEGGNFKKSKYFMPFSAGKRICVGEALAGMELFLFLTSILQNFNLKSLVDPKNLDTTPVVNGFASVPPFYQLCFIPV

Another assay has as its target Cytochrome P450 2C19 (Homo sapiens, UniProt P33261). Description: Inhibition of CYP2C19 in human liver microsomes using mephenytoin as substrate preincubated for 10 mins with substrate followed by NADPH addition measured after 15 mins by LC/MS/MS analysis. Type of assay: ADME.
For assay [5], the system named is Trichophyton rubrum. Description: Antifungal activity against Trichophyton rubrum by serial dilution method. Type of assay: functional.
The target of the next assay is Cytochrome P450 2D6 (Homo sapiens, UniProt P10635). The assay can be described thus: Inhibition of CYP2D6 in human liver microsomes using dextromethorphan as substrate preincubated for 10 mins with substrate followed by NADPH addition measured after 15 mins by LC/MS/MS analysis. Type of assay: ADME.
Sequence of Cytochrome P450 2D6 (P10635 whole entry): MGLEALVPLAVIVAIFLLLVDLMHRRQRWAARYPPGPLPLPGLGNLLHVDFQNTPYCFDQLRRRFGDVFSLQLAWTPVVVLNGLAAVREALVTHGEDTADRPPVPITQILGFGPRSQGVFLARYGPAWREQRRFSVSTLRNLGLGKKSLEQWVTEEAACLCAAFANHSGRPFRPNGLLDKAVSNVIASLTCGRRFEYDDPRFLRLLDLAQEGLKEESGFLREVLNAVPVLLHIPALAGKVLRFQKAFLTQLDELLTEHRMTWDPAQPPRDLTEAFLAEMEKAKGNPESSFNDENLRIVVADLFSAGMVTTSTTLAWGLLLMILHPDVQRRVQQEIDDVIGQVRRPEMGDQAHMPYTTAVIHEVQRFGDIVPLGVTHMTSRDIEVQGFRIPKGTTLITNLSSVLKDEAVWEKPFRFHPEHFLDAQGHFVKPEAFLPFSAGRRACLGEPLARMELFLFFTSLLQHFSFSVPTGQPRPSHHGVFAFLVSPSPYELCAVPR
The subject of assay [6] is Nakaseomyces glabratus. The assay can be described thus: Antifungal activity against Candida glabrata after 24 hrs by serial dilution method. Type of assay: functional.
Assay [7] concerns Candida albicans. The assay can be described thus: Antifungal activity against Candida albicans SC5314 after 24 hrs by serial dilution method. To be noted: SC5314, 24 h. Type of assay: functional.
For assay [8], the system named is Cryptococcus neoformans. Description: Potency index, ratio of VT-1161 MIC80 to compound MIC80 for Cryptococcus neoformans. Type of assay: functional.
For assay [9], the system named is Trichophyton rubrum. The assay can be described thus: Potency index, ratio of VT-1161 MIC80 to compound MIC80 for Trichophyton rubrum. Type of assay: functional.
Assay [10] deals with Candida albicans. Description: Potency index, ratio of VT-1161 MIC80 to compound MIC80 for Candida albicans Y0109. Type of assay: functional.
Assay [11] has as its system Candida parapsilosis. Description: Potency index, ratio of VT-1161 MIC80 to compound MIC80 for Candida parapsilosis ATCC 22019. Type of assay: functional.
In assay [12] the test system is Candida albicans. The assay can be described thus: Potency index, ratio of VT-1161 MIC80 to compound MIC80 for Candida albicans SC5314. Type of assay: functional.
The test system of assay [13] is Nannizzia gypsea. Description: Potency index, ratio of VT-1161 MIC80 to compound MIC80 for Microsporum gypseum. Type of assay: functional.
The test system of assay [14] is Nakaseomyces glabratus. The assay can be described thus: Potency index, ratio of VT-1161 MIC80 to compound MIC80 for Candida glabrata. Type of assay: functional.

Sequence of Cytochrome P450 2C19 (P33261 whole entry): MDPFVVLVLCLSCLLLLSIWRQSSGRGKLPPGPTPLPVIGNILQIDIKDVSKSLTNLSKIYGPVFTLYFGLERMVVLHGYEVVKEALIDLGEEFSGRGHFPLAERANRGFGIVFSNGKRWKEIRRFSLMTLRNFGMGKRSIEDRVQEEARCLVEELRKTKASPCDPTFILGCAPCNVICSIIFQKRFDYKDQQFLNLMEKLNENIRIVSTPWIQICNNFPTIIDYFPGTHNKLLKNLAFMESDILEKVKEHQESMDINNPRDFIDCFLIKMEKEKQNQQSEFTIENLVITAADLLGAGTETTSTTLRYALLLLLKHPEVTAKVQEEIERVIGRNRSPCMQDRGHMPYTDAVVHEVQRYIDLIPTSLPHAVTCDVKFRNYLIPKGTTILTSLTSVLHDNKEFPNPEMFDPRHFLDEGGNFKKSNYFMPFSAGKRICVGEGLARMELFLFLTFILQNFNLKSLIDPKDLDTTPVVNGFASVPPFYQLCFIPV

Regarding `O=c1n(-c2ccc(C(F)(F)C(O)(Cn3cnnn3)c3ccc(F)cc3F)nc2)cnn1C1CCCC1` (stereo not given), the MIC80 (usually the lowest concentration that inhibits either 80% of growth or 80% of the strains tested, depending on the study) against Aspergillus fumigatus is above 8 µg/mL; in the assay on Candida parapsilosis [1] it was 0.125 µg/mL (≈ 0.248 µM); in the assay on Nannizzia gypsea [2], 16 µg/mL (≈ 31.7 µM); in the assay on Cryptococcus neoformans [3], 1 µg/mL (≈ 1.98 µM); in the assay on Candida albicans [4] it was 0.25 µg/mL (≈ 0.496 µM); with Trichophyton rubrum [5], 4 µg/mL (≈ 7.93 µM). Also, the MIC80 against Nakaseomyces glabratus [6] turned out to be 2 µg/mL (≈ 3.96 µM); against Candida albicans [7] it was 0.25 µg/mL (≈ 0.496 µM). The half-maximal inhibitory concentration (IC50) (in general, the concentration that inhibits the measured activity by half) against Cytochrome P450 1A2 stood at 22.6 µM; against Cytochrome P450 2C9, 11.9 µM; on Cytochrome P450 2C19, 17 µM; against Cytochrome P450 2D6, 10.8 µM.

In the case of `O=c1n(-c2ccc(C(F)(F)C(O)(Cn3cnnn3)c3ccc(F)cc3F)nc2)cnn1C1CCCCC1` (stereo not given), the MIC80 against Aspergillus fumigatus is above 64 µg/mL; in the assay with Candida parapsilosis [1], 0.25 µg/mL (≈ 0.482 µM); in the assay on Nannizzia gypsea [2], 4 µg/mL (≈ 7.71 µM); in the assay with Cryptococcus neoformans [3] it was 0.125 µg/mL (≈ 0.241 µM); in the assay with Candida albicans [4], 0.25 µg/mL (≈ 0.482 µM); in the assay on Trichophyton rubrum [5] it was 2 µg/mL (≈ 3.86 µM). Moreover, the MIC80 against Nakaseomyces glabratus [6] and in the assay on Candida albicans [7] was 0.25 µg/mL (≈ 0.482 µM) throughout. In addition, the concentration for half-maximal inhibition (IC50) was determined as 14.5 µM against Cytochrome P450 1A2, 16.5 µM against Cytochrome P450 2C9, 14.6 µM at Cytochrome P450 2C19 and 21.1 µM against Cytochrome P450 2D6.

As to `CC(C)(C)Cn1ncn(-c2ccc(C(F)(F)C(O)(Cn3cnnn3)c3ccc(F)cc3F)nc2)c1=O` (stereo not given), the MIC80 in the assay with Aspergillus fumigatus is above 64 µg/mL; against Candida parapsilosis [1], 0.5 µg/mL (≈ 0.987 µM); in the assay on Nannizzia gypsea [2], 4 µg/mL (≈ 7.9 µM); with Cryptococcus neoformans [3] it was 0.5 µg/mL (≈ 0.987 µM); in the assay with Candida albicans [4] it was 0.25 µg/mL (≈ 0.494 µM); against Trichophyton rubrum [5], 2 µg/mL (≈ 3.95 µM). The MIC80 against Nakaseomyces glabratus [6] turned out to be 1 µg/mL (≈ 1.97 µM); in the assay on Candida albicans [7], 0.5 µg/mL (≈ 0.987 µM). Also, the Ratio in the assay on Cryptococcus neoformans [8], with Trichophyton rubrum [9], in the assay on Candida albicans [10], with Candida parapsilosis [11], in the assay on Candida albicans [12] and in the assay with Nannizzia gypsea [13] was 2 - 4 each time. The Ratio in the assay on Nakaseomyces glabratus [14] is on record as 2 - 4. The IC50 against Cytochrome P450 1A2 was determined as 25 µM; against Cytochrome P450 2C9, 25 µM; at Cytochrome P450 2C19, 20 µM; at Cytochrome P450 2D6, 7.7 µM.

For the compound `OC(Cn1cnnn1)(c1ccc(F)cc1F)C(F)(F)c1ccc(-c2ccc(OCC(F)(F)F)cc2)cn1` (racemic), the MIC80 is above 8 µg/mL against Aspergillus fumigatus; 0.5 µg/mL (≈ 0.948 µM) in the assay on Candida parapsilosis [1]; 8 µg/mL (≈ 15.2 µM) against Nannizzia gypsea [2]; 1 µg/mL (≈ 1.9 µM) with Cryptococcus neoformans [3]; 1 µg/mL (≈ 1.9 µM) in the assay on Candida albicans [4]; 2 µg/mL (≈ 3.79 µM) against Trichophyton rubrum [5]. For the same compound, the MIC80 is 2 µg/mL (≈ 3.79 µM) with Nakaseomyces glabratus [6] and 1 µg/mL (≈ 1.9 µM) in the assay on Candida albicans [7]. The IC50 worked out at 28.9 µM on Cytochrome P450 1A2, 11.5 µM on Cytochrome P450 2C9, 8.5 µM at Cytochrome P450 2C19 and 8.7 µM on Cytochrome P450 2D6.
